Source: US6458962B1, “Sultams: catalyst systems for asymmetric reduction of a C=N intermediate biological compositions and methods for making the sultams” (The University of Tennesseee Research Corporation, priority 1999, dated 2002)

Columns and labels:
[1] = IC50 in the National Cancer Institute anti-HIV protocol (Weislow et al.), used with EC50 for the TI50; format: cell-based; settings: NCI protocol; read-out: ICSO
Procedure: (§1) The sultams of the invention were tested in accordance with the National Cancer Institute Protocol, Weislow, O. W., et al. (1989) J. Natl. Cancer Inst. 81:577-586, which is incorporated herein by reference. The protocol is also described in U.S. Pat. No. 5,843,990.

HIV-1 = experiment: Anti-HIV-1 activity, National Cancer Institute protocol (Weislow et al.); format: cell-based; settings: for EC50: Human immunodeficiency virus 1, read-out: ECSO; for TLSO: ratio IC50/EC50, NCI protocol
Procedure: as §1
The anti-HIV activity of compounds of the invention illustrated by the formula V shown above, is reported below.
Table III illustrates anti-HIV-1 activities of compounds of the invention, the substituents (shown in formula V).

Row | SMILES | melting point [°C] | IC50 [1] [nM] | EC50 (HIV-1) [nM] | TLSO (HIV-1)
1 | Cc1cccc(C2c3ccccc3S(=O)(=O)N2C)c1 (single isomer, unassigned; (+)) [Compound 7, (+)-2-Methyl-3-(3-methylphenyl)-2,3-dihydrobenzo[d] isothiazole 1,1-Dioxide] | 154 | > 2000 | 37 | >54
2 | CN1C(c2cccc(F)c2)c2ccccc2S1(=O)=O (single isomer, unassigned; (+)) [Compound 13, (+)-3-(3-Fluorophenyl)-2-methyl-2,3-dihydrobenzo[d]isothiazole 1,1-Dioxide] | 147 | 147000 | 179 | 538
3 | Cc1ccccc1C1c2ccccc2S(=O)(=O)N1C (single isomer, unassigned; (+)) [Compound 18, (+)-2-Methyl-3-(2-methylphenyl)-2,3-dihydrobenzo[d]isothiazole 1,1-Dioxide] | 152 | 123000 | 4680 | 26.3
4 | CN1[C@@H](c2ccccc2)c2ccccc2S1(=O)=O [Compound 5, (+)-(S)-2-Methyl-3-phenyl-2,3-dihydrobenzo[d]isothiazole 1,1-Dioxide] | 156 to 157 | > 316000 | 471 | >674
5 | CN1[C@@H](c2cccc(Br)c2)c2ccccc2S1(=O)=O [Compound 9, (+)-(S)-3-(3-Bromophenyl)-2-methyl-2,3-dihydrobenzo[d]isothiazole 1,1-Dioxide] | 157 | 101000 | 74 | 136.5
6 | CN1[C@@H](c2cccc(Cl)c2)c2ccccc2S1(=O)=O [Compound 11, (+)-(S)-3-(3-Chlorophenyl)-2-methyl-2,3-dihydrobenzo[d]isothiazole 1,1-Dioxide] | 164 | > 2000 | 86 | >31
7 | CN1[C@@H](c2cccc(I)c2)c2ccccc2S1(=O)=O [Compound 15, (+)-(S)-2-Methyl-3-(3-iodophenyl)-2,3-dihydrobenzo[d]isothiazole 1,1-Dioxide] | 156 | 62400 | 76 | 817
